Results taken from patent publication US11649502B2, “Exosomal microRNA in serum as an indicator for the activation of brown and beige fat tissue (BAT)” (RHEINISCHE FRIEDRICH-WILHELMS-UNIVERSITÄT BONN, priority 2015, dated 2023).

Assays:
[1] = system: C57BL/6J wild type mice; assay: qPCR of exosomal miRNAs in mouse serum after BAT activation; format: in vivo
Description: Cold exposure was performed by housing 12 week old male mice at 4° C. for 7 days. The β3-adrenergic agonist CL-316,243 (#1499, Tocris, Wiesbaden, GER, 0.2 mg/mL in 0.9 W/V % NaCl) was administered by subcutaneous injection (1 μg per g body weight) for 7 days. Control-treated C57BL/6J mice received vehicle injections (0.9% NaCl) correspondingly. Blood collections were performed after 4 hours of fasting.

[2] = system: UCP-1; assay: UCP-1 expression after NE treatment in 3T3-L1 cells; format: cell-based; conditions: 3T3-L1 cells after NE treatment
Source text: The supernatant was withdrawn and used for exosome isolation.

[3] = system: UCP-1; assay: UCP-1 expression after NE treatment in primary murine white adipocytes; format: cell-based, mouse; conditions: primary murine white adipocytes treated with NE
[4] = serum of mice with active BAT (CL-316,243 or cold)

Row | SMILES | miR-133a in serum-derived exosomes ([1]; CL-treated mice, 1 μg per g body weight s.c. for 7 days) | miR-34c* in serum exosomes (qPCR) [1, 4] | miR-92a in serum exosomes (qPCR) [1, 4] | UCP-1 expression [2] | UCP-1 expression [3]
1 | C[C@H](Cc1ccc2c(c1)OC(C(=O)[O-])(C(=O)[O-])O2)NC[C@H](O)c1cccc(Cl)c1.[Na+].[Na+] [CL] | down-regulated | significantly up- | down-regulated | – | –
2 | NC[C@H](O)c1ccc(O)c(O)c1 [NE, norepinephrine] | – | – | – | did not significantly increase | significant increase
